pIC50: −log10 of the molar value.
Biological target: T1, Human MTHFD2 (Homo sapiens, UniProt P13995)
T1 construct: residues 36-350 in Uniport ID P13995; His6 (N); made in house; host or cells: E. coli
T1 sequence (P13995 36-350): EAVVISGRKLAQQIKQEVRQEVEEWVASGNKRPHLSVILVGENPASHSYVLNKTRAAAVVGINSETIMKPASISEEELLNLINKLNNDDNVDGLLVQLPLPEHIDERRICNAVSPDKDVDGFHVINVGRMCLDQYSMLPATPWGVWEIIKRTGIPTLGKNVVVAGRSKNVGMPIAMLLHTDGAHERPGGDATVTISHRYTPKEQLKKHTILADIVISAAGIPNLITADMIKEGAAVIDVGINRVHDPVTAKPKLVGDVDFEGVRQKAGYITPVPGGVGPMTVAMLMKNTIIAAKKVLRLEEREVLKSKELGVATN
Assay: MTHFD2 Activity Assay (dehydrogenase activity, diaphorase/resazurin coupled fluorescence)
Type: biochemical
Conditions: inhibitory activity (IC50 and/or binding constant); 0.2 nM MTHFD2, 11 concentrations
Excerpt: Human MTHFD2 (residues 36-350 in Uniport ID P13995) was expressed as an N-terminal His6 tagged protein and purified in E. coli using nickel capture followed by size-exclusion chromatography.
MTHFD2 dehydrogenase activity oxidizes methylene tetrahyrofolate to methenyl-tetrahydrofolate with the concomitant reduction of NAD to NADH. MTHFD2 dehydrogenase activity was followed by coupling the generation of NADH to diaphorase catalyzed […] of resazurin to fluorescent resorufin. Briefly, control (DMSO) or compound was incubated with 0.2 nM MTHFD2 for 15 minutes in 10.5 μl assay buffer containing 100 mM Hepes, pH 8.0, 5 mM MgCl2, 5 mM KH2PO4, 0.05% BSA, 0.01% Tween-20 in a 384 well Griener, low volume, black plate. 10 μl of substrate buffer containing 70 μM CH2-THF, 1 mM NAD^+, 100 μM Resazurin and 0.42 mg/ml diaphorase was then added to initiate the reaction and the reaction plate was incubated for 30 minutes. 5 μl of 250 mM EDTA was then added to each well to stop the reaction and MTHFD2 activity was quantified by measuring resorufin fluorescence emission at 598 nm following excitation at 525 nm. Activity in positive control wells containing the complete reaction mixture and DMSO alone was set to 100% while activity in negative control wells with the complete reaction mix without MTHFD2 was set to 0%. 11 concentrations of each compound were tested and the fluorescent data at each concentration was normalized to the positive and negative controls and represented as % inhibition. Median inhibitory concentration (IC50) was calculated by fitting % inhibition at each concentration to a 4 parameter logistic fit equation using Graphpad Prizm.
The compound numbers correspond to the compound numbers in Table A (i.e., the example numbers).

Row | Compound | pIC50
1 | Cn1c(Nc2ccncc2)nc2c1c(=O)n(Cc1cc3ccc(Cl)cc3[nH]1)c(=O)n2C [Example 312, 1-((6-chloro-1H-indol-2-yl)methyl)-3,7-dimethyl-8-(pyridin-4-ylamino)-1H-purine-2,6(3H,7H)-dione] | 6.00 to 8.00
2 | Cn1c(NCCCO)nc2c1c(=O)n(Cc1ccc(C(F)(F)F)cc1)c(=O)n2C [Example 56, 8-[(3-hydroxypropyl)amino]-3,7-dimethyl-1-{[4-(trifluoromethyl)phenyl]methyl}-2,3,6,7-tetrahydro-1H-purine-2,6-dione] | 5.00 to 5.30
3 | Cn1c(N2CC(O)C2)nc2c1c(=O)n(Cc1cc3cc(Cl)ccc3[nH]1)c(=O)n2C [Example 199, 1-((5-chloro-1H-indol-2-yl)methyl)-8-(3-hydroxyazetidin-1-yl)-3,7-dimethyl-1H-purine-2,6(3H,7H)-dione] | 5.30 to 6.00
4 | CC(=O)NS(=O)(=O)c1ccc(Nc2nc3c(c(=O)n(Cc4cc5c(Cl)cccc5[nH]4)c(=O)n3C)n2C)cc1 [Example 390, N-((4-((1-((4-chloro-1H-indol-2-yl)methyl)-3,7-dimethyl-2,6-dioxo-2,3,6,7-tetrahydro-1H-purin-8-yl)amino)phenyl)sulfonyl)acetamide] | 6.00 to 8.00
5 | Cn1c(Nc2cccc(-c3ccccc3)n2)nc2c1c(=O)n(Cc1cc3c(Cl)cccc3[nH]1)c(=O)n2C [Example 399, 1-[(4-chloro-1H-indol-2-yl)methyl]-3,7-dimethyl-8-[(6-phenyl-2-pyridyl)amino]purine-2,6-dione] | 5.30 to 6.00
6 | Cn1c(Nc2ccnc(CNC(N)=O)n2)nc2c1c(=O)n(Cc1cc3c(Cl)cccc3[nH]1)c(=O)n2C [Example 462, 1-((4-(1-((4-chloro-1H-indol-2-yl)methyl)-3,7-dimethyl-2,6-dioxo-2,3,6,7-tetrahydro-1H-purin-8-ylamino)pyrimidin-2-yl)methyl)urea] | 6.00 to 8.00

Next, values leading:

Row | pIC50 | Compound
7 | 6.00 to 8.00 | Cn1c(Nc2ccc3c(c2)C(CC(=O)O)CC3)nc2c1c(=O)n(Cc1ccc(Cl)c(Cl)c1)c(=O)n2C (stereo not drawn) [Example 314, 2-(6-((1-(3,4-dichlorobenzyl)-3,7-dimethyl-2,6-dioxo-2,3,6,7-tetrahydro-1H-purin-8-yl)amino)-2,3-dihydro-1H-inden-1-yl)acetic acid]
8 | 6.00 to 8.00 | Cn1c(Nc2cccc([C@@H]3C[C@H]3C(=O)O)n2)nc2c1c(=O)n(Cc1cc3c(Cl)cccc3[nH]1)c(=O)n2C (single isomer, unassigned) [Example 398, (1R,2R)-2-(6-((1-((4-chloro-1H-indol-2-yl)methyl)-3,7-dimethyl-2,6-dioxo-2,3,6,7-tetrahydro-1H-purin-8-yl)amino)pyridin-2-yl)cyclopropanecarboxylic acid or (1S,2S)-2-(6-((1-((4-chloro-1H-indol-2-yl)methyl)-3,7-dimethyl-2,6-dioxo-2,3,6,7-tetrahydro-1H-purin-8-yl)amino)pyridin-2-yl)cyclopropanecarboxylic acid]
9 | 5.30 to 6.00 | CN(C)CCNc1nc2c(c(=O)n(Cc3ccc(Cl)c(Cl)c3)c(=O)n2C)n1C [Example 40, 1-[(3,4-dichlorophenyl)methyl]-8-{[2-(dimethylamino)ethyl]amino}-3,7-dimethyl-2,3,6,7-tetrahydro-1H-purine-2,6-dione]
10 | 5.30 to 6.00 | Cn1c(N[C@@H]2CCCC[C@@H]2O)nc2c1c(=O)n(Cc1ccc(Cl)c(Cl)c1)c(=O)n2C (racemic) [Example 95, (±)-1-[(3,4-dichlorophenyl)methyl]-8-{[(cis)-2-hydroxycyclohexyl]amino}-3,7-dimethyl-2,3,6,7-tetrahydro-1H-purine-2,6-dione]
11 | 6.00 to 8.00 | Cn1c(Nc2ccc(C(=O)O)cc2)nc2c1c(=O)n(Cc1cc3ccccc3[nH]1)c(=O)n2C [Example 297, 4-[[1-(1H-indol-2-ylmethyl)-3,7-dimethyl-2,6-dioxo-purin-8-yl]amino]benzoic acid]
12 | 6.00 to 8.00 | Cn1c(Nc2cc[nH]c(=O)n2)nc2c1c(=O)n(Cc1ccc(Cl)c(Cl)c1)c(=O)n2C [Example 140, 1-(3,4-dichlorobenzyl)-3,7-dimethyl-8-(2-oxo-1,2-dihydropyrimidin-4-ylamino)-1H-purine-2,6(3H,7H)-dione]

Source: US12187728B2 (Raze Therapeutics, Inc., priority 2015, dated 2025)
